Measurements taken from patent US20100310685A1, “PUPICIDAL AND LARVICIDAL COMPOSITION” (priority 2008, published 2010).

Test system: pupae of Nematocera Diptera (for example mosquitoes)
Experiment: specific research on pupicidal action
Settings: in vivo

How did the “pupicidal action (kills pupae)” value turn out when `CCCCCCCCCCCCCCCCO` [cetyl alcohol, 1-hexadecanol] was run?
Its value is “excellent pupicide”.
